According to patent publication US20240034736A1, “HSD17B13 INHIBITORS AND USES THEREOF” (FL2022-001, Inc., priority 2020, published 2024):
pIC50: −log10 of the molar value.

These molecules were tested against Recombinant human HSD17B13 enzyme (Homo sapiens (Human), UniProt Q7Z5P4) (assay: HSD17b13 NAD(P)H-Glo Biochemical Assay). Settings: 50 uM estradiol, 1 mM NAD+; read-out: HSD17β13 IC50.
Experimental: Recombinant human HSD17B13 enzyme. Substrate: estradiol (Sigma β-Estradiol E8875), 100 mM in DMSO. […] Assay buffer final concentration: 20 mM Tris pH7.4 with 0.002% Tween-20 and 0.02% BSA. […] Enzymatic activity detected by NAD(P)H-Glo™ Detection System (Promega G9062).
Inhibitor compounds were serially diluted in DMSO and then further diluted in assay buffer to a 10× concentration consisting of 1% DMSO.
HSD17b13 enzyme was diluted in 1× assay buffer to the desired enzyme concentration based on the specific activity of the enzyme lot. 20 uL of diluted enzyme was added to each well along with 2.5 uL of 10× inhibitor solution. Assay plate was incubated at RT for 20 minutes, and then 2.5 uL of a 10× substrate/cofactor mix was added to each well for a final concentration of 50 uM estradiol and 1 mMNAD+. Assay plate was incubated at 37° C. for 3 hours. NAD(P)H-Glo™ Detection System reagents were prepared according to manufacturer's specifications, and 25 uL was added to each well. After incubating for 1 hour at RT, luminescence was measured.

Recombinant human HSD17B13 enzyme, sequence (Q7Z5P4 20-300): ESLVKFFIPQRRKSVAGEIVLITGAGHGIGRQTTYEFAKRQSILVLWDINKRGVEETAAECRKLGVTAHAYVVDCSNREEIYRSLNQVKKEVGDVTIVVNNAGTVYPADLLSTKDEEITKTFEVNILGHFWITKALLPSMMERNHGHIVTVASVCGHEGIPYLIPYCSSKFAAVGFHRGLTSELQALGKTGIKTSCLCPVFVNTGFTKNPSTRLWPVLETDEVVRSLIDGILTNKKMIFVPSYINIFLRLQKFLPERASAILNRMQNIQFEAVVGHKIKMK

`CC(=O)Nc1ccc(-c2ccc3c(cnn3-c3ccc(F)c(O)c3)c2)c(Cl)c1` [Compound 5.18, N-(3-Chloro-4-(1-(4-fluoro-3-hydroxyphenyl)-1H-indazol-5-yl)phenyl)acetamide] and `Oc1cc(-n2ncc3cc(-c4ccccc4Cl)ccc32)ccc1F` [Compound 4.11, 5-(5-(2-Chlorophenyl)-1H-indazol-1-yl)-2-fluorophenol] fall in the same range of pIC50: 6.00 to 7.00 for the first, 6.00 to 7.00 for the second.

Compared with `Oc1ccc(F)c(-n2ncc3cc(-c4ccc(O)c(Cl)c4)ccc32)c1` [Compound 1, 2-Chloro-4-(1-(2-fluoro-5-hydroxyphenyl)-1H-indazol-5-yl)phenol], `Oc1ccc(-c2ccc3c(cnn3-c3cc(O)c(F)c(F)c3F)c2)cc1Cl` [Compound 1.05, 5-(5-(3-Chloro-4-hydroxyphenyl)-1H-indazol-1-yl)-2,3,4-trifluorophenol] is higher in pIC50: 4.52 to 6.00 for the first, 6.00 to 7.00 for the second. The second is the more potent here.

`Oc1cc(-n2ccc3cc(-c4ccc(O)c(Cl)c4)ccc32)ccc1F` [Compound 1.06, 2-Chloro-4-(1-(4-fluoro-3-hydroxyphenyl)-1H-indol-5-yl)phenol] and `Cc1cc(-c2ccc3c(cnn3-c3ccc(F)c(O)c3)c2)ccc1O` [Compound 5.02, 4-(1-(4-Fluoro-3-hydroxyphenyl)-1H-indazol-5-yl)-2-methylphenol] fall in the same range of pIC50: 6.00 to 7.00 for the first, 6.00 to 7.00 for the second.

`CC1(C)CCN(c2cc3cnn(-c4cc(O)c(F)c(C(F)(F)F)c4)c3cn2)CC1` [Compound 21.43, 5-(5-(4,4-Dimethylpiperidin-1-yl)-1H-pyrazolo[3,4-c]-pyridine-1-yl)-2-fluoro-3-(trifluoromethyl)phenol] and `CC1(C)CC=C(c2cc3cnn(-c4cc(O)c(F)c(C(F)(F)F)c4)c3cc2F)CC1` [Compound 18, 5-(5-(4,4-Dimethylcyclohex-1-en-1-yl)-6-fluoro-1H-indazol-1-yl)-2-fluoro-3-(trifluoromethyl)phenol] fall in the same range of pIC50: 6.00 to 7.00 for the first, 6.00 to 7.00 for the second.

`O=C(O)Cc1ccc(-c2ccc3c(cnn3-c3ccc(F)c(O)c3)c2)cc1` [Compound 2.01, 2-(4-(1-(4-Fluoro-3-hydroxyphenyl)-1H-indazol-5-yl)phenyl)acetic acid] and `O=C(O)c1ccccc1-c1ccc2c(cnn2-c2ccc(F)c(O)c2)c1` [Compound 5.23, 2-(1-(4-Fluoro-3-hydroxyphenyl)-1H-indazol-5-yl)benzoic acid] fall in the same range of pIC50: 4.52 to 6.00 for the first, 4.52 to 6.00 for the second.

First: CS(=O)(=O)N1CCN(c2cc3cnn(-c4cc(O)cc(OC(F)(F)F)c4)c3cn2)CC1 [Compound 19.12, 3-(5-(4-(Methylsulfonyl)piperazin-1-yl)-1H-pyrazolo[3,4-c]pyridine-1-yl)-5-(trifluoromethoxy)phenol]
Second: CS(=O)(=O)N1CCN(c2cc3cnn(-c4cc(C(F)(F)F)cc(O)c4F)c3cn2)CC1 [Compound 19.06, 2-Fluoro-3-(5-(4-(methylsulfonyl)piperazin-1-yl)-1H-pyrazolo[3,4-c]pyridine-1-yl)-5-(trifluoromethyl)phenol]
The pIC50 of the first is lower: 4.52 to 6.00 for the first, 6.00 to 7.00 for the second. The second is the more potent here.

`Oc1ccc(-c2cc3cnn(-c4cc(O)c(F)c(F)c4)c3cc2Cl)c(Cl)c1` [Compound 4.17, 5-(6-Chloro-5-(2-chloro-4-hydroxyphenyl)-1H-indazol-1-yl)-2,3-difluorophenol] and `Oc1cc(-n2ncc3cc(-c4cncc(F)c4)ccc32)cc(F)c1F` [Compound 7.04, 2,3-Difluoro-5-(5-(5-fluoropyridin-3-yl)-1H-indazol-1-yl)phenol] fall in the same range of pIC50: 6.00 to 7.00 for the first, 6.00 to 7.00 for the second.

First: Cc1nn(-c2cc(C(F)(F)F)c(Cl)c(O)c2F)c2cc(F)c(N3CCN(S(C)(=O)=O)CC34CC4)cc12 [Compound 19.110, 2-Chloro-6-fluoro-5-(6-fluoro-3-methyl-5-(7-(methylsulfonyl)-4,7-diazaspiro[2.5]octan-4-yl)-1H-indazol-1-yl)-3-(trifluoromethyl)phenol]
Second: CS(=O)(=O)N1CCN(c2cc3cnn(-c4cc(C(F)(F)F)c(F)c(O)c4F)c3cn2)CC1 [Compound 19.38, 2,6-Difluoro-3-(5-(4-(methylsulfonyl)piperazin-1-yl)-1H-pyrazolo[3,4-c]pyridine-1-yl)-5-(trifluoromethyl)phenol]
The pIC50 of the first is higher: greater than 7.00 for the first, 6.00 to 7.00 for the second. The first is the more potent here.

First: CS(=O)(=O)N1CCN(c2ccc3nn(-c4cc(C(F)(F)F)cc(O)n4)cc3c2)CC1 [Compound 31.01, 6-(5-(4-(Methylsulfonyl)-piperazin-1-yl)-2H-indazol-2-yl)-4-(trifluoromethyl)-pyridin-2-ol]
Second: CS(=O)(=O)N1CCN(c2ccc3c(cnn3-c3cc(O)c(F)c(F)c3)c2)CC1 [Compound 21, 2,3-Difluoro-5-(5-(4-(methylsulfonyl)piperazin-1-yl)-1H-indazol-1-yl)phenol]
The pIC50 of the first is lower: 4.52 to 6.00 for the first, 6.00 to 7.00 for the second. The second is the more potent here.

First: Cc1nn(-c2cc(C(F)(F)F)c(F)c(O)c2F)c2cnc(N3CCC(OCCN(C)C)CC3)cc12 [Compound 19.60, 3-(5-(4-(2-(Dimethylamino)ethoxy)piperidin-1-yl)-3-methyl-1H-pyrazolo[3,4-c]pyridine-1-yl)-2,6-difluoro-5-(trifluoromethyl)phenol]
Second: Cc1nn(-c2cc(C(F)(F)F)c(F)c(O)c2F)c2cc(Cl)c(N(C)C3CCOCC3)nc12 [Compound 19.115, 3-(6-Chloro-3-methyl-5-(methyl(tetrahydro-2H-pyran-4-yl)amino)-1H-pyrazolo[4,3-b]pyridin-1-yl)-2,6-difluoro-5-(trifluoromethyl)phenol]
The pIC50 of the first is lower: 6.00 to 7.00 for the first, greater than 7.00 for the second.

`CNc1c(-n2nc(Cl)c3cc(N(C)C4CCOCC4)ccc32)cc(C(F)(F)F)c(F)c1O` [Compound 19.91, 3-(3-Chloro-5-(methyl(tetrahydro-2H-pyran-4-yl)amino)-1H-indazol-1-yl)-6-fluoro-2-(methylamino)-5-(trifluoromethyl)phenol] and `CN(c1ccc2c(c1)c(F)nn2-c1cc(C(F)(F)F)c(F)c(O)c1F)C1CCOCC1` [Compound 21.58, 2,6-Difluoro-3-(3-fluoro-5-(methyl(tetrahydro-2H-pyran-4-yl)amino)-1H-indazol-1-yl)-5-(trifluoromethyl)phenol] fall in the same range of pIC50: 6.00 to 7.00 for the first, 6.00 to 7.00 for the second.

First: CS(=O)(=O)N1CCN(c2cc3c(F)nn(-c4cc(O)c(F)c(C(F)(F)F)c4)c3cn2)CC1 [Compound 21.53, 2-Fluoro-5-(3-fluoro-5-(4-(methylsulfonyl)piperazin-1-yl)-1H-pyrazolo[3,4-c]pyridin-1-yl)-3-(trifluoromethyl)phenol]
Second: Cc1cc2c(cnn2-c2cc(O)c(F)c(F)c2)cc1N1CCN(S(C)(=O)=O)CC1 [Compound 21.11, 2,3-Difluoro-5-(6-methyl-5-(4-(methylsulfonyl)piperazin-1-yl)-1H-indazol-1-yl)phenol]
The pIC50 of the first is higher: greater than 7.00 for the first, 4.52 to 6.00 for the second. The first is the more potent here.

First: CS(=O)(=O)NC1CCN(c2ccc3c(cnn3-c3cc(O)c(F)c(F)c3)c2)CC1 [Compound 21.05, N-(1-(1-(3,4-Difluoro-5-hydroxyphenyl)-1H-indazol-5-yl)piperidin-4-yl)methane-sulfonamide]
Second: CS(=O)(=O)N1CCCN(c2ccc3c(cnn3-c3cc(O)c(F)c(F)c3)c2)CC1 [Compound 21.26, 2,3-Difluoro-5-(5-(4-(methyl-sulfonyl)-1,4-diazepan-1-yl)-1H-indazol-1-yl)phenol]
The pIC50 of the first is lower: 4.52 to 6.00 for the first, 6.00 to 7.00 for the second. The second is the more potent here.

First: CN(c1ccc2c(c1)c(C(=O)O)nn2-c1cc(C(F)(F)F)c(F)c(O)c1F)C1CCOCC1 [Compound 19.89, 1-(2,4-Difluoro-3-hydroxy-5-(trifluoromethyl)phenyl)-5-(methyl(tetrahydro-2H-pyran-4-yl)amino)-1H-indazole-3-carboxylic Acid]
Second: CN(c1ccc2c(c1)c(C(N)=O)nn2-c1cc(C(F)(F)F)c(F)c(O)c1F)C1CCOCC1 [Compound 19.111, 1-(2,4-Difluoro-3-hydroxy-5-(trifluoromethyl)phenyl)-5-(methyl(tetrahydro-2H-pyran-4-yl)amino)-1H-indazole-3-carboxamide]
The pIC50 of the first is lower: 4.52 to 6.00 for the first, 6.00 to 7.00 for the second.

First: CS(=O)(=O)N1CC2(CN(c3ccc4c(cnn4-c4cc(O)c(F)c(F)c4)c3)C2)C1 [Compound 21.27, 2,3-Difluoro-5-(5-(6-(methyl-sulfonyl)-2,6-diazaspiro[3.3]-heptan-2-yl)-1H-indazol-1-yl)phenol]
Second: O=C(O)C1CCN(c2ccc3c(cnn3-c3ccc(F)c(O)c3)c2)CC1 [Compound 20.02, 1-(1-(4-Fluoro-3-hydroxy-phenyl)-1H-indazol-5-yl)-piperidine-4-carboxylic acid]
The pIC50 of the first is higher: 6.00 to 7.00 for the first, 4.52 to 6.00 for the second. The first is the more potent here.

Compared with `Cc1ccccc1-c1ccc2c(cnn2-c2ccc(F)c(O)c2)c1` [Compound 4.12, 2-Fluoro-5-(5-(o-tolyl)-1H-indazol-1-yl)phenol], `CN(C)C(=O)c1nn(-c2cc(C(F)(F)F)c(F)c(O)c2F)c2ccc(N(C)C3CCOCC3)cc12` [Compound 19.113, 1-(2,4-Difluoro-3-hydroxy-5-(trifluoromethyl)phenyl)-N,N-dimethyl-5-(methyl(tetrahydro-2H-pyran-4-yl)amino)-1H-indazole-3-carboxamide] is lower in pIC50: 6.00 to 7.00 for the first, 4.52 to 6.00 for the second.

Same assay, conditions: read-out: HSD17β13 inhibition at 30 uM

Point of comparison: `CS(=O)(=O)N1CCN(c2cc3cnn(-c4ccc(C#N)c(O)c4)c3cn2)CC1` [Compound 19.36, 2-Hydroxy-4-(5-(4-(methylsulfonyl)piperazin-1-yl)-1H-pyrazolo[3,4-c]pyridine-1-yl)benzonitrile], inhibition at 30 µM 40%. Against it:
- Cc1ccc(O)c(F)c1-n1ncc2cc(N3CCN(S(C)(=O)=O)CC3)ncc21 [Compound 19.43, 2-Fluoro-4-methyl-3-(5-(4-(methylsulfonyl)piperazin-1-yl)-1H-pyrazolo[3,4-c]pyridine-1-yl)phenol] — higher, 45%
